Molecular target: Protein Kinase C beta 2 (PKCβII) (Homo sapiens (Human), UniProt P05771)
Experiment: Protein Kinase C beta 2 (PKCβII) coupled PK/LDH spectrophotometric kinase assay
Type: biochemical
Settings: apparent Ki, ATP-competitive model (Morrison equation); 5 nM PKC, 0.1 mM ATP, 0.15 mM peptide, 30° C., pH 7.4; read-out: Ki app
Protocol: Protein Kinase C beta 2 (PKCβII) catalyzes the production of ADP from ATP that accompanies the phosphoryl transfer to the PKC Pseudosubstrate peptide (A→S, RFARKGSLRQKNV). This transfer is coupled to the oxidation of β-NADH through the activities of Pyruvate Kinase (PK) and Lactate Dehydrogenase (LDH). β-NADH conversion to NAD+ is monitored by the decrease in absorbance at 340 nm (e=6.22 cm^−1 mM^−1) using a Molecular Devices SPECTRA max PLUS spectrophotometer. […]
Steady-state kinetic parameters for the bi-bi kinase reaction were determined at saturating phospho-acceptor peptide substrate concentration (0.15 mM) by fitting initial velocity data to the Michaelis-Menten equation, v=Vmax[S]/(KM[S]) where v is the measured initial velocity, Vmax is the maximal enzyme velocity, [S] is the ATP substrate concentration, and KM is the Michealis constant for ATP. Enzyme turnover values (kcat) were calculated according to […], where [E] is the total enzyme concentration. Enzyme inhibition constants (apparent Ki values) were determined by fitting initial velocities at variable inhibitor concentrations to a model for ATP competitive inhibition based on the Morrison equation). […]

Sequence of Protein Kinase C beta 2 (PKCβII) (P05771 other isoform, or with tags, fused parts or gaps): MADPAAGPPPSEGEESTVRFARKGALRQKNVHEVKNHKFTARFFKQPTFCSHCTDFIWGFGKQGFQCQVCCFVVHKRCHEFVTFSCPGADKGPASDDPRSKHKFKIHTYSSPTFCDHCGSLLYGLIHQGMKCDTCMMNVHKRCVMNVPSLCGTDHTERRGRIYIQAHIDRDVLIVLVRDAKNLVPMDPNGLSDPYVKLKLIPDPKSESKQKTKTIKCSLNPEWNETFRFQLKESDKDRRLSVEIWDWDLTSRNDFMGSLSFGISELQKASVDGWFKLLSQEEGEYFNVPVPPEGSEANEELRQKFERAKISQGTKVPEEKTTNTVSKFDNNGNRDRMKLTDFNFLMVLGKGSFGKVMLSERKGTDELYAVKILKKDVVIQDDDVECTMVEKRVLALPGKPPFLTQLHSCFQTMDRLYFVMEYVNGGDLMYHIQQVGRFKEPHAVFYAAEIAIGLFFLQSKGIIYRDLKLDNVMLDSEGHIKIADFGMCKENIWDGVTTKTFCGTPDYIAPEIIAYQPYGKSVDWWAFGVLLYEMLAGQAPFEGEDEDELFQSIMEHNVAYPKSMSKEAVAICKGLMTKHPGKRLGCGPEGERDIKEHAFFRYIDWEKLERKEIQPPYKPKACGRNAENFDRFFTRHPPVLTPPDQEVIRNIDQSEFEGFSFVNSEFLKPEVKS

Q: Which Ki does the source give for `COCc1ncc(F)c(Nc2n[nH]c3c2CN(C(=O)N2CC(CCO)N(C)C[C@@H]2C)C3(C)C)n1` (single isomer, unassigned) [Example N3] here?
A: The Ki was 15.6 nM.

Q: `CCOc1ncc(F)c(Nc2n[nH]c3c2CN(C(=O)N2C[C@@H](C)N(C)C[C@@H]2C)C3(C)C)n1` [Example K1, N-(2-ethoxy-5-fluoropyrimidin-4-yl)-6,6-dimethyl-5-{[(2S,5R)-2,4,5-trimethylpiperazin-1-yl]carbonyl}-1,4,5,6-tetrahydropyrrolo[3,4-c]pyrazol-3-amine] was tested. Which Ki did it give?
A: Its Ki is 1.12 nM.

From patent publication US11220518B2, “Substituted n-pyrimidin-4-yl-3-amino-pyrrolo[3,4-c]pyrazoles as protein kinase C inhibitors” (PFIZER INC., priority 2007, dated 2022)
